# Columns and labels:
# KDR = KDR (Homo sapiens, UniProt P35968); assay: KDR autophosphorylation ELISA in HUVEC cells; type: cell-based; design: endogenous in cells; host or cells: HUVEC (Lonza #C2519A); conditions: Table 3 Cellular Activities, VEGF165-stimulated, phospho-KDR ELISA
# Summary of the method: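 Inhibition of VEGF165-induced KDR phosphorylation was determined in serum-starved HUVEC after 1 h compound pretreatment and 5 min stimulation with 100 ng/mL VEGF165. Lysate phospho-KDR was measured by ELISA; IC50 values came from a 4-parameter logistic fit of 8-point curves.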
# Mer = molecular target: T1, Mer (Homo sapiens, UniProt Q12866); assay: Mer autophosphorylation ELISA in transient transfected 293A cells; type: cell-based; conditions: Table 3 Cellular Activities; MERTK-transfected 293A cells, phospho-Mer ELISA
# T1 construct: host or cells: 293A cells (Thermo Fisher #R70507)
# T1 sequence (Q12866 21-999): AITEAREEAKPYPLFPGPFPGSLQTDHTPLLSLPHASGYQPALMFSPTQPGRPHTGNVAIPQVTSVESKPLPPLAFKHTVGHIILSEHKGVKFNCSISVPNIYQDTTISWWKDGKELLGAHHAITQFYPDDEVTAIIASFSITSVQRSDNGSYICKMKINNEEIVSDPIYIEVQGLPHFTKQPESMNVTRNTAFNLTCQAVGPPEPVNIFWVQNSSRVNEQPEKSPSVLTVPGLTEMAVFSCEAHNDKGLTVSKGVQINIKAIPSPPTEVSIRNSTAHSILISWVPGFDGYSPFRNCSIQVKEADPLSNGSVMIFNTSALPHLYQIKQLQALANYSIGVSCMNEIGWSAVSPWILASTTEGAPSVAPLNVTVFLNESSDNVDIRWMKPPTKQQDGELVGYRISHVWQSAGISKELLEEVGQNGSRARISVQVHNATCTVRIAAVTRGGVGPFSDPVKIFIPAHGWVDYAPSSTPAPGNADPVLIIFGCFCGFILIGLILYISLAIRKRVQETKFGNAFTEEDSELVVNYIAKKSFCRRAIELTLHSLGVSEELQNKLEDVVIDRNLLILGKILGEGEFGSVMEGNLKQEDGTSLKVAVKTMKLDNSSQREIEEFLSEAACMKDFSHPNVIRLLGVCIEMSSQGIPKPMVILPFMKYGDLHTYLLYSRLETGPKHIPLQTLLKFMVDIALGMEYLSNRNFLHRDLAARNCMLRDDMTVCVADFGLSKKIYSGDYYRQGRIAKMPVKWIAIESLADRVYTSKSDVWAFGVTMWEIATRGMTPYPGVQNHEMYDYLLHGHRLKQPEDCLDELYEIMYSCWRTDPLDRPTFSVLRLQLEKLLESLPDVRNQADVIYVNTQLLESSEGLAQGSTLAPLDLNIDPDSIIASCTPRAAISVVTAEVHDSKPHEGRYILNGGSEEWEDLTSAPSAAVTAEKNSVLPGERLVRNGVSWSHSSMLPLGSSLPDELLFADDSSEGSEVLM
# Summary of the method: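 Phospho-Mer quantified by ELISA in lysates of transiently MERTK-transfected 293A cells after 1 h exposure to an 8-point compound series, serum-free, 0.3% DMSO. Activity normalized between DMSO-treated (100%) and reference inhibitor-treated (0%) lysates; IC50 via 4-parameter nonlinear regression.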
# KDR, sequence (P35968 20-1356): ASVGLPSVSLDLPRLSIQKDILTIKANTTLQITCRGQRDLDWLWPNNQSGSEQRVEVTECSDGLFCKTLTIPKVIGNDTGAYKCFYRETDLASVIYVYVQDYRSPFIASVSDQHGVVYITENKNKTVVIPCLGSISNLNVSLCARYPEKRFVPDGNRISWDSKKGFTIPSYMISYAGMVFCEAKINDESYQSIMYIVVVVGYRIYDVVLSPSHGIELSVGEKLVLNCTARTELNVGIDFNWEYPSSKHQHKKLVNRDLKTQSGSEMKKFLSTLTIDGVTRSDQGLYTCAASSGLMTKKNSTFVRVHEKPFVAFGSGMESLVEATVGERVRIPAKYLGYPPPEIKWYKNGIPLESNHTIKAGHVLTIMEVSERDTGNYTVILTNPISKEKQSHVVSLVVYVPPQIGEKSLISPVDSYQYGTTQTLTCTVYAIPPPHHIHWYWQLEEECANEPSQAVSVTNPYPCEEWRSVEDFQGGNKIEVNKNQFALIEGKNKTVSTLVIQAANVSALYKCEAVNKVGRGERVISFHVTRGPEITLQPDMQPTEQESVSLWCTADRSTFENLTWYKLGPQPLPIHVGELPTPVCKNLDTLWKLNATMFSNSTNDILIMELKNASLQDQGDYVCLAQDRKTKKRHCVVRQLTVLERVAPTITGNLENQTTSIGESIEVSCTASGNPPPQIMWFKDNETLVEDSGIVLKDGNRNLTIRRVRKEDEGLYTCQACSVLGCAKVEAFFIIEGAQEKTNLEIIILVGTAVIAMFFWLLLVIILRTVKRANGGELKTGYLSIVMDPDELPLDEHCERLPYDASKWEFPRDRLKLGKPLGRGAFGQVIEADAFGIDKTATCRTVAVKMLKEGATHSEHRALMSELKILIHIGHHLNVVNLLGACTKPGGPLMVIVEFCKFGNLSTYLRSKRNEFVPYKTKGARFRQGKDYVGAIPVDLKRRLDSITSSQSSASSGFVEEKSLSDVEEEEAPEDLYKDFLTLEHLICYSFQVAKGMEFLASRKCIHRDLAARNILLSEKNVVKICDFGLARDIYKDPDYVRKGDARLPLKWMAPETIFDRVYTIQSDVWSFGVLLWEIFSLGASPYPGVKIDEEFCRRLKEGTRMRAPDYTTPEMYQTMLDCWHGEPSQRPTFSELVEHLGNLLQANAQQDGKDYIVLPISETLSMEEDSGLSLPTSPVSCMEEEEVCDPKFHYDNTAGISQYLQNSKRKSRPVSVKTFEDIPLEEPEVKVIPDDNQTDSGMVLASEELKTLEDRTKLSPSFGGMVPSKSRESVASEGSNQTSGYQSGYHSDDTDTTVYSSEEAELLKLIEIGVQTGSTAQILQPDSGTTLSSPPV
SMILES,IC50 (KDR) [nM],IC50 (Mer) [nM]
"COc1cnc2c(Oc3ccc(NC(=O)c4ccc(C)n(-c5ncc(F)cc5C)c4=O)cc3F)ccnc2c1 [Compound 52, N-[3-Fluoro-4-[(7-methoxy-1,5-naphthyridin-4-yl)oxy]phenyl]-1-(5-fluoro-3-methylpyridin-2-yl)-6-methyl-2-oxopyridine-3-carboxamide]",≤ 100,≤ 100
"COc1cnc2c(Oc3ccc(NC(=O)c4c(C)nc(C)c(-c5ccc(F)cn5)c4O)cc3F)ccnc2c1 [Compound 217, N-[3-Fluoro-4-[(7-methoxy-1,5-naphthyridin-4-yl)oxy]phenyl]-5-(5-fluoropyridin-2-yl)-4-hydroxy-2,6-dimethylpyridine-3-carboxamide]",≤ 100,≤ 100
"COc1cc2nccc(Oc3ccc(NC(=O)c4nccn(-c5ccc(F)cn5)c4=O)cc3F)c2nc1OC [Compound 246, N-[4-[(6,7Dimethoxy-1,5-naphthyridin-4-yl)oxy]-3-fluorophenyl]-4-(5-fluoropyridin-2-yl)-3-oxopyrazine-2-carboxamide]",100 to 300,≤ 100
"COc1cc2nccc(Oc3ccc(NC(=O)c4c(C)ccn(-c5ccc(F)cn5)c4=O)cc3F)c2nc1OC [Compound 41, N-[4-[(6,7-Dimethoxy-1,5-naphthyridin-4-yl)oxy]-3-fluorophenyl]-1-(5-fluoropyridin-2-yl)-4-methyl-2-oxopyridine-3-carboxamide]",≤ 100,≤ 100
"COc1cc2nccc(Oc3ccc(NC(=O)c4cnc(C)c(-c5ccco5)c4O)cc3F)c2cc1OC [Compound 259, N-[4-(6,7-Dimethoxyquinolin-4-yl)oxy-3-fluorophenyl]-5-(furan-2-yl)-4-hydroxy-6-methylpyridine-3-carboxamide]",≤ 100,≤ 100
"COc1cc2c(Oc3ccc(NC(=O)c4c(C)ncc(-c5ccccn5)c4O)cc3F)ccnc2cn1 [Compound 223, N-[3-Fluoro-4-[(6-methoxy-1,7-naphthyridin-4-yl)oxy]phenyl]-4-hydroxy-2-methyl-5-pyridin-2-ylpyridine-3-carboxamide]",≤ 100,≤ 100
"COc1cnc2c(Oc3ccc(NC(=O)c4ccc(C)n(-c5ccc(F)cn5)c4=O)cc3F)ccnc2c1 [Compound 45, N-[3-Fluoro-4-[(7-methoxy-1,5-naphthyridin-4-yl)oxy]phenyl]-1-(5-fluoropyridin-2-yl)-6-methyl-2-oxopyridine-3-carboxamide]",≤ 100,≤ 100
"COc1cc2nccc(Oc3ccc(NC(=O)c4c5n(cc(-c6cccs6)c4=O)CCOC5)cc3F)c2nc1OC [Compound 309, N-[4-[(6,7-Dimethoxy-1,5-naphthyridin-4-yl)oxy]-3-fluorophenyl]-8-oxo-7-thiophen-2-yl-3,4-dihydro-1H-pyrido[2,1-c][1,4]oxazine-9-carboxamide]",300 to 1000,≤ 100
"COc1cc2nccc(Oc3ccc(NC(=O)c4cn(CCF)c(C)c(-c5cccs5)c4=O)cc3F)c2nc1OC [Compound 327, N-[4-[(6,7-Dimethoxy-1,5-naphthyridin-4-yl)oxy]-3-fluorophenyl]-1-(2-fluoroethyl)-6-methyl-4-oxo-5-thiophen-2-ylpyridine-3-carboxamide]",100 to 300,≤ 100
"COc1cc2nccc(Oc3ccc(NC(=O)c4cc(C(C)=O)c(C)n(-c5ccco5)c4=O)cc3F)c2nc1OC [Compound 236, 5-Acetyl-N-[4-[(6,7-dimethoxy-1,5-naphthyridin-4-yl)oxy]-3-fluorophenyl]-1-(furan-2-yl)-6-methyl-2-oxopyridine-3-carboxamide]",300 to 1000,≤ 100
"COc1ccc2nccc(Oc3ccc(NC(=O)c4ccc(C)n(-c5ncc(F)cc5C)c4=O)cc3F)c2n1 [Compound 53, N-[3-Fluoro-4-[(6-methoxy-1,5-naphthyridin-4-yl)oxy]phenyl]-1-(5-fluoro-3-methylpyridin-2-yl)-6-methyl-2-oxopyridine-3-carboxamide]",≤ 100,≤ 100
"COc1cnc2c(Oc3ccc(NC(=O)c4c(C)n(C)cc(-c5ccc(F)cn5)c4=O)cc3F)ccnc2c1 [Compound 73, N-[3-Fluoro-4-[(7-methoxy-1,5-naphthyridin-4-yl)oxy]phenyl]-5-(5-fluoropyridin-2-yl)-1,2-dimethyl-4-oxopyridine-3-carboxamide]",300 to 1000,≤ 100
"COc1cc2nccc(Oc3ccc(NC(=O)c4c5n(cc(-c6ccc(C)s6)c4=O)CCOC5)cc3)c2nc1OC [Compound 305, N-[4-[(6,7-Dimethoxy-1,5-naphthyridin-4-yl)oxy]phenyl]-7-(5-methylthiophen-2-yl)-8-oxo-3,4-dihydro-1H-pyrido[2,1-c][1,4]oxazine-9-carboxamide]",300 to 1000,≤ 100
"COc1cc2nccc(Oc3ccc(NC(=O)c4ccc(C)n(-c5ccc(F)cn5)c4=O)cc3)c2nc1OC [Compound 44, N-[4-[(6,7-Dimethoxy-1,5-naphthyridin-4-yl)oxy]phenyl]-1-(5-fluoropyridin-2-yl)-6-methyl-2-oxopyridine-3-carboxamide]",≤ 100,≤ 100
"CCOc1ccn(-c2ccc(F)cn2)c(=O)c1C(=O)Nc1ccc(Oc2ccnc3cc(OC)c(OC)nc23)cc1 [Compound 244, N-[4-[(6,7-Dimethoxy-1,5-naphthyridin-4-yl)oxy]phenyl]-4-ethoxy-1-(5-fluoropyridin-2-yl)-2-oxopyridine-3-carboxamide]",300 to 1000,≤ 100
